This assay relates to Plasmopara viticola. The experiment in a line: Activity against Peronospora of vines caused by Plasmopara viticola (persistence test on potted vines). The note with it: individual active compound, vines "Müller-Thurgau", inoculated 3 days after spraying. Format: in vivo. As to the method:
The active compounds were prepared separately or together as a stock solution comprising 0.25% of active compound in acetone or DMSO. 1% by weight of the emulsifier Uniperol® EM (wetting agent having emulsifying and dispersing action based on ethoxylated alkylphenols) was added, and the mixture was diluted with water to the desired concentration.
Evaluation is carried out by determining the infected leaf areas in percent. These percentages are converted into efficacies. The expected efficacies of the active compound mixtures are determined using Colby's formula [R. S. Colby, Weeds 15, 20-22 (1967)] and compared with the observed efficacies.
Colby's formula: E=x+y−x.y/100 • E expected efficacy, expressed in % of the untreated control, when using the mixture of the active compounds A and B at the concentrations a and b • x efficacy, expressed in % of the untreated control, when using active compound A at a concentration of a • y efficacy, expressed in % of the untreated control, when using active compound B at a concentration of b
The efficacy (E) is calculated as follows using Abbot's formula: E=(1−α/β)·100 • α corresponds to the fungal infection of the treated plants in % and • β corresponds to the fungal infection of the untreated (control) plants in %
An efficacy of 0 means that the infection level of the treated plants corresponds to that of the untreated control plants; an efficacy of 100 means that the treated plants were not infected.
Leaves of potted vines of the cultivar “Müller-Thurgau” were sprayed to runoff point with an aqueous suspension having the concentration of active compound stated below. To be able to assess the persistence of the substances, the plants were, after the spray coating had dried on, placed in a green house for 3 days. Only then were the leaves inoculated with an aqueous zoospore suspension of Plasmopara viticola. The vines were then initially placed in a water-vapor-saturated chamber at 24° C. for 48 hours and then in a greenhouse at 20-30° C. for 5 days. After this period of time, the plants were again placed in a moist chamber for 16 hours to promote sporangiophore eruption. The extent to which the infection had developed on the undersides of the leaves was then determined visually.

As for `CCCOC(=O)NCCN(C)C` [I, propyl (2-dimethylaminoethyl)carbamate], the “Efficacy in % of the untreated control” value was 0 % of the untreated control (3.75 ppm in the spray liquor), 0 % of the untreated control (7.5 ppm in the spray liquor), 0 % of the untreated control (15 ppm in the spray liquor) and 0 % of the untreated control (30 ppm in the spray liquor).
As for `N#Cc1sc2c(=O)c3ccccc3c(=O)c=2sc1C#N` [II, dithianon], the “Efficacy in % of the untreated control” value (30 ppm in the spray liquor) is 89 % of the untreated control.

For the origin of these results see patent US7074422B2, “Fungicidal mixtures” (BASF Aktiengesellschaft, priority 2002, dated 2006).
